{
  "source": "patent US10035805B2",
  "about": "“Tricyclic triazolic compounds” (LABORATORIOS DEL DR. ESTEVE S.A., priority 2014, dated 2018)",
  "note": "Structures can show the parent of a compound that is named as a salt.",
  "data": [
    {"molecular_target": "T1, sigma-1 receptor (Cavia porcellus, UniProt Q60492)", "T1 construct": "Guinea pig brains were homogenized in 10 vols; (w/v) of Tris-HCl 50 mM 0.32 M sucrose; from tissue; host or cells: guinea pig brain membranes", "T1 sequence (Q60492 whole entry)": "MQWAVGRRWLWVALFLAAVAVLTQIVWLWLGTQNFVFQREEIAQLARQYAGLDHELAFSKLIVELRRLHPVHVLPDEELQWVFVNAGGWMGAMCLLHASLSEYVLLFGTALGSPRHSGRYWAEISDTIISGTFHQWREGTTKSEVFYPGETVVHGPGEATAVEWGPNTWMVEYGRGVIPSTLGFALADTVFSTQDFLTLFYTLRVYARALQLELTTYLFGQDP", "assay": "Sigma-1 receptor radioligand binding assay with [3H]-(+)-pentazocine in guinea pig brain membranes", "conditions": "radioligand [3H]-(+)-pentazocine at 5.0 nM, 150 min at 37° C., nonspecific binding with 1 μM haloperidol", "description": "Brain membrane preparation and binding assays for the al-receptor were performed as described (DeHaven-Hudkins, D. L., L. C. Fleissner, and F. Y. Ford-Rice, 1992, Characterization of the binding of [^3H](+)pentazocine to a recognition sites in guinea pig brain, Eur. J. Pharmacol. 227, 371-378) with some modifications. Guinea pig brains were homogenized in 10 vols. (w/v) of Tris-HCl 50 mM 0.32 M sucrose, pH 7.4, with a Kinematica Polytron PT 3000 at 15000 r.p.m. for 30 s. The homogenate was centrifuged at 1000 g for 10 min at 4° C. and the supernatants collected and centrifuged again at 48000 g for 15 min at 4° C. The pellet was resuspended in 10 volumes of Tris-HCl buffer (50 mM, pH 7.4), incubated at 37° C. for 30 min, and centrifuged at 48000 g for 20 min at 4° C. Following this, the pellet was resuspended in fresh Tris-HCl buffer (50 mM, pH 7.4) and stored on ice until use.\nThe radioligand used was [^3H]-(+)-pentazocine at 5.0 nM and the final volume was 200 μl. The incubation was initiated with the addition of 100 μl of membrane at a final tissue concentration of approximately 5 mg tissue net weight/mL and the incubation time was 150 m. at 37° C. After incubation, the membranes were collected onto pretreated glass fiber filterplate (MultiScreen-FC, Millipore), with polyethylenimine 0.1%. The filters were washed two times with 200 μl of washing buffer (50 mM Tris Cl, pH=7.4) and then 25 μl of Ecoscint H liquid scintillation cocktail were added. Microplates were allowed to set for several hours and then quantified by liquid scintillation spectrophotometry (1450 Microbeta, Wallac). Nonspecific binding was determined with 1 μM haloperidol.", "units": {"Ki": "nM"}, "values": [
      {"smiles": "c1ccc(CN2C[C@@H]3NCCc4c(-c5ccccc5)nnn4[C@@H]3C2)cc1", "note": "(racemic) [Example 30, (rac) (6a,9a-cis)-8-benzyl-3-phenyl-4,5,6,6a,7,8,9,9a-octahydropyrrolo[3,4-b][1,2,3]triazolo[1,5-d][1,4]diazepine hydrochloride]", "Ki": "< 100"},
      {"smiles": "CCCN1CCc2c(-c3ccccc3)nnn2[C@@H]2CN(Cc3ccccc3)C[C@@H]21", "note": "(racemic) [Example 31, (rac) (6a,9a-cis)-8-benzyl-3-phenyl-6-propyl-4,5,6,6a,7,8,9,9a-octahydropyrrolo[3,4-b][1,2,3]triazolo[1,5-d][1,4]diazepine hydrochloride]", "Ki": "< 100"},
      {"smiles": "CCCN1Cc2c(-c3ccccc3)nnn2[C@@H]2CNC[C@H]21", "note": "(racemic) [Example 10, (rac) (5a,8a-trans)-3-phenyl-5-propyl-5,5a,6,7,8,8a-hexahydro-4H-pyrrolo[3,4-e][1,2,3]triazolo[1,5-a]pyrazine hydrochloride]", "Ki": "> 500"},
      {"smiles": "CCC(=O)N1CCc2c(-c3ccccc3)nnn2[C@@H]2CN(Cc3ccccc3)C[C@@H]21", "note": "(racemic) [Example 33, (rac) 1-((6a,9a-cis)-8-benzyl-3-phenyl-4,5,7,8,9,9a-hexahydropyrrolo[3,4-b][1,2,3]triazolo[1,5-d][1,4]diazepin-6(6aH)-yl)propan-1-one hydrochloride]", "Ki": "100 to 500"},
      {"smiles": "c1ccc(CN2C[C@@H]3[C@@H](C2)NCc2c(-c4ccccc4)nnn23)cc1", "note": "(racemic) [Example 1, (rac) (5a,8a-trans)-7-benzyl-3-phenyl-5,5a,6,7,8,8a-hexahydro-4H-pyrrolo[3,4-e][1,2,3]triazolo[1,5-a]pyrazine, hydrochloride]", "Ki": "< 100"},
      {"smiles": "CC(C)(C)OC(=O)N1Cc2c(-c3ccccc3)nnn2[C@@H]2CN(Cc3ccc(F)cc3)C[C@H]21", "note": "(racemic) [Example 7, (rac)-(5a,8a-trans)-tert-butyl-7-(4-fluorobenzyl)-3-phenyl-6,7,8,8a-tetrahydro-4H-pyrrolo[3,4-e][1,2,3]triazolo[1,5-a]pyrazine-5(5aH)-carboxylate]", "Ki": "> 500"},
      {"smiles": "c1ccc(CN2C[C@H]3NCCc4c(-c5ccccc5)nnn4[C@H]3C2)cc1", "note": "[Example 34, (6aR,9aS)-8-benzyl-3-phenyl-4,5,6,6a,7,8,9,9a-octahydropyrrolo[3,4-b][1,2,3]triazolo[1,5-d][1,4]diazepine hydrochloride]", "Ki": "100 to 500"},
      {"smiles": "CCCN1Cc2c(-c3ccccc3)nnn2[C@@H]2CN(Cc3ccccc3)C[C@H]21", "note": "(racemic) [Example 9, (rac) (5a,8a-trans)-7-benzyl-3-phenyl-5-propyl-5,5a,6,7,8,8a-hexahydro-4H-pyrrolo[3,4-e][1,2,3]triazolo[1,5-a]pyrazine hydrochloride]", "Ki": "< 100"},
      {"smiles": "CCC(=O)N1Cc2c(-c3ccccc3)nnn2[C@@H]2CN(Cc3ccccc3)C[C@H]21", "note": "(racemic) [Example 17, (rac) 1-((5a,8a-trans)-7-benzyl-3-phenyl-6,7,8,8a-tetrahydro-4H-pyrrolo[3,4-e][1,2,3]triazolo[1,5-a]pyrazin-5(5aH)-yl)propan-1-one hydrochloride]", "Ki": "100 to 500"},
      {"smiles": "Fc1ccc(CN2C[C@@H]3[C@@H](C2)NCc2c(-c4ccccc4)nnn23)cc1", "note": "(racemic) [Example 8, (rac) (5a,8a-trans)-7-(4-fluorobenzyl)-3-phenyl-5,5a,6,7,8,8a-hexahydro-4H-pyrrolo[3,4-e][1,2,3]triazolo[1,5-a]pyrazine hydrochloride]", "Ki": "< 100"}
    ]}
  ]
}
